The source of these data is ChEMBL document CHEMBL5291721, “A preclinical secondary pharmacology resource illuminates target-adverse drug reaction associations of marketed drugs” (Nat Commun, 2023).

Assay [1] concerns the target 5-hydroxytryptamine receptor 6 (Homo sapiens, UniProt P50406).
The target of assay [2] is Neurotensin receptor type 1 (Homo sapiens, UniProt P30989).
For another assay, the target named is Glucagon receptor (Homo sapiens, UniProt P47871).
Another assay addresses T1, D(4) dopamine receptor (Homo sapiens, UniProt P21917).
T1 sequence (P21917 whole entry): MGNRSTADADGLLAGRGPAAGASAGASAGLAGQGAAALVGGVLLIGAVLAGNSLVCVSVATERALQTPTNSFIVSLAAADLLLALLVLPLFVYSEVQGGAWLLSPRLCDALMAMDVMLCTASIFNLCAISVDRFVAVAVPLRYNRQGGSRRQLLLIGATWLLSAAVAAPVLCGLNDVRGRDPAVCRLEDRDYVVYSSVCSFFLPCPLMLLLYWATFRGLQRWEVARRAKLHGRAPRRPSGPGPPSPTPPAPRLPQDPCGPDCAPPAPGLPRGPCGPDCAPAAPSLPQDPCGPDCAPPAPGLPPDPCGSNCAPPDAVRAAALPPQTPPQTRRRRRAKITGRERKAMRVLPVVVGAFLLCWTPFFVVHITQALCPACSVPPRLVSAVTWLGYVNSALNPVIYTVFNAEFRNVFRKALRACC

Assay [3] deals with T2, Alpha-2A adrenergic receptor (Homo sapiens, UniProt P08913).
T2 sequence (P08913 whole entry): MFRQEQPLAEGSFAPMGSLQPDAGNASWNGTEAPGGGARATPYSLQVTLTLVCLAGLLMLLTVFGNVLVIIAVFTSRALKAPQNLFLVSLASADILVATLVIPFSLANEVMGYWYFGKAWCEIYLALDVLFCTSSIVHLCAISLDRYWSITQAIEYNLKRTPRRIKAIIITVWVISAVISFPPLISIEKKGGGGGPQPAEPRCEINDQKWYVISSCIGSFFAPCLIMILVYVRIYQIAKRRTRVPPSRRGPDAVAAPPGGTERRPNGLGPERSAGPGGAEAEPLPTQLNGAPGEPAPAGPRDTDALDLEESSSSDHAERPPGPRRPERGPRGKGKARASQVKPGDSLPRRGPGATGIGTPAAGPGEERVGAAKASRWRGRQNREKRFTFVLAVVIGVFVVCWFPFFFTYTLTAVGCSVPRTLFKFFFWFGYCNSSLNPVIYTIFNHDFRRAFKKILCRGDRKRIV

A further assay deals with D(1A) dopamine receptor (Homo sapiens, UniProt P21728).
Sequence of D(1A) dopamine receptor (P21728 whole entry): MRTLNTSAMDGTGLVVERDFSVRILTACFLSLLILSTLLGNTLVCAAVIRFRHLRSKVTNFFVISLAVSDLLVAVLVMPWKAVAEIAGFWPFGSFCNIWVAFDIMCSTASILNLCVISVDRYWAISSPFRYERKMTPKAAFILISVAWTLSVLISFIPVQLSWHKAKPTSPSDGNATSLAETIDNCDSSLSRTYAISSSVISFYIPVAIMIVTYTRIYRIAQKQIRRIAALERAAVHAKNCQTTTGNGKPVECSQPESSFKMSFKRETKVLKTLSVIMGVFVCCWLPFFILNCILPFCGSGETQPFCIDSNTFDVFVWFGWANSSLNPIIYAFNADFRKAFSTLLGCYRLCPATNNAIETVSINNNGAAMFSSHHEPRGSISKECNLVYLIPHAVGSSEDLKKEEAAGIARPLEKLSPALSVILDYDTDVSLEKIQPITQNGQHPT
The target of another assay is T3, Substance-K receptor (Homo sapiens, UniProt P21452).
T3 sequence (P21452 whole entry): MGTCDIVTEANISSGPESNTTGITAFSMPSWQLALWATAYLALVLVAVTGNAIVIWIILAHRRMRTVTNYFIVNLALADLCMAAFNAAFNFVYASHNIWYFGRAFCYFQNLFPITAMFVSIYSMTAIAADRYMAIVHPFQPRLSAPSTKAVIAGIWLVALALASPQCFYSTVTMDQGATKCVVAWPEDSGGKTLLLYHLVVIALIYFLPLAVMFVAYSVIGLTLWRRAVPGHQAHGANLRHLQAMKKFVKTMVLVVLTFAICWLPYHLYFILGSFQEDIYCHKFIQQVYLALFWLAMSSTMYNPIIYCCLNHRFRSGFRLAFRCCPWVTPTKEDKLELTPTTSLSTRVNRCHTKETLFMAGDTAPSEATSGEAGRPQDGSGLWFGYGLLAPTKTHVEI

A further assay concerns the target Histamine H1 receptor (Homo sapiens, UniProt P35367). The assay is classed as functional, cell-based.
The target of assay [4] is T4, Corticotropin-releasing factor receptor 1 (Homo sapiens, UniProt P34998).
T4 sequence (P34998 whole entry): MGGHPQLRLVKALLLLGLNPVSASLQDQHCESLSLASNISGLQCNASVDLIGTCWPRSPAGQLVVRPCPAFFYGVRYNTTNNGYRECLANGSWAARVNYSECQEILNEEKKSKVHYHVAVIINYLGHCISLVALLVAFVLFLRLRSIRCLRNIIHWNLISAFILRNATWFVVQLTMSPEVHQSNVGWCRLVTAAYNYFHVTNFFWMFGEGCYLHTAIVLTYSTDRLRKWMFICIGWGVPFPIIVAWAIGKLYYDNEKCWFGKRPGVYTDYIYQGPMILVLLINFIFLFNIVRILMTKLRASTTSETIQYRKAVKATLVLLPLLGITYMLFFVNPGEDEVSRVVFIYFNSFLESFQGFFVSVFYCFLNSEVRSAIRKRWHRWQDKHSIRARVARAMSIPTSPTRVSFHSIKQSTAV

The target of assay [5] is 5-hydroxytryptamine receptor 2B (Homo sapiens, UniProt P41595).
Sequence of 5-hydroxytryptamine receptor 2B (P41595 whole entry): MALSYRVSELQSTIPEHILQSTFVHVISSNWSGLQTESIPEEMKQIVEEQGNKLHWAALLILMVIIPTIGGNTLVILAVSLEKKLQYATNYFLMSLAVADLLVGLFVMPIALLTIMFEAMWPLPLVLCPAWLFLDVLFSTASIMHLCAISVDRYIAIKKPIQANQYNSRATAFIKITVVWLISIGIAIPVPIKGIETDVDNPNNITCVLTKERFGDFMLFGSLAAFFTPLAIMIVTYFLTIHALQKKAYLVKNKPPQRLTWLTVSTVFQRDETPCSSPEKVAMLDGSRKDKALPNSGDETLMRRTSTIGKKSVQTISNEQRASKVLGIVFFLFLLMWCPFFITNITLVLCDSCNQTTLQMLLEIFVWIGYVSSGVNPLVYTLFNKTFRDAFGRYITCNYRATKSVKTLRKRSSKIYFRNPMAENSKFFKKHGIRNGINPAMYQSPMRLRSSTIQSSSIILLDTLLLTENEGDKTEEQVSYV
The target of assay [6] is Rod cGMP-specific 3',5'-cyclic phosphodiesterase subunit alpha (Homo sapiens, UniProt P16499). The assay is classed as functional.
Sequence of Rod cGMP-specific 3',5'-cyclic phosphodiesterase subunit alpha (P16499 whole entry): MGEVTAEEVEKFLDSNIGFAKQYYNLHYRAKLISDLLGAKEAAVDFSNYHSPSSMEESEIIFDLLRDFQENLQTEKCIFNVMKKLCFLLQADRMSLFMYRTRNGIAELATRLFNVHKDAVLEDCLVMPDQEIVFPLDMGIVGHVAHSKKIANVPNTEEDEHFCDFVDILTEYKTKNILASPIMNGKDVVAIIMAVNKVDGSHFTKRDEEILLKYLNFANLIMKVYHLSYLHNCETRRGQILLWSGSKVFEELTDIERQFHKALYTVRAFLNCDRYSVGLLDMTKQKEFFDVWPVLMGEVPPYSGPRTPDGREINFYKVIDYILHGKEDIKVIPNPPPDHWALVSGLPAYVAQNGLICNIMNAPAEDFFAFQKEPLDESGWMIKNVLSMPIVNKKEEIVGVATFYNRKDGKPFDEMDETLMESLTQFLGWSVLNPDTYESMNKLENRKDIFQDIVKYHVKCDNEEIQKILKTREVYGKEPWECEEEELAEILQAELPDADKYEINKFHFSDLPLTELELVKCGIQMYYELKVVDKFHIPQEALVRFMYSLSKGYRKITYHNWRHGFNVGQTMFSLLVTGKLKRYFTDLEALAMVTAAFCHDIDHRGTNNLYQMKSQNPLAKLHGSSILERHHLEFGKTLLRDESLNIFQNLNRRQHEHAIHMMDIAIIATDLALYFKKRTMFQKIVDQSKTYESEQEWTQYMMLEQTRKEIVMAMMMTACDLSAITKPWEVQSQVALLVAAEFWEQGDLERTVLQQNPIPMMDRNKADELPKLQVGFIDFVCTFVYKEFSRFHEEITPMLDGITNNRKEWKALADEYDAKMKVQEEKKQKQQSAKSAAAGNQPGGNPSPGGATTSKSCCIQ
The target of assay [7] is Voltage-dependent N-type calcium channel subunit alpha-1B (Rattus norvegicus, UniProt Q02294). The assay is classed as functional.
Sequence of Voltage-dependent N-type calcium channel subunit alpha-1B (Q02294 whole entry): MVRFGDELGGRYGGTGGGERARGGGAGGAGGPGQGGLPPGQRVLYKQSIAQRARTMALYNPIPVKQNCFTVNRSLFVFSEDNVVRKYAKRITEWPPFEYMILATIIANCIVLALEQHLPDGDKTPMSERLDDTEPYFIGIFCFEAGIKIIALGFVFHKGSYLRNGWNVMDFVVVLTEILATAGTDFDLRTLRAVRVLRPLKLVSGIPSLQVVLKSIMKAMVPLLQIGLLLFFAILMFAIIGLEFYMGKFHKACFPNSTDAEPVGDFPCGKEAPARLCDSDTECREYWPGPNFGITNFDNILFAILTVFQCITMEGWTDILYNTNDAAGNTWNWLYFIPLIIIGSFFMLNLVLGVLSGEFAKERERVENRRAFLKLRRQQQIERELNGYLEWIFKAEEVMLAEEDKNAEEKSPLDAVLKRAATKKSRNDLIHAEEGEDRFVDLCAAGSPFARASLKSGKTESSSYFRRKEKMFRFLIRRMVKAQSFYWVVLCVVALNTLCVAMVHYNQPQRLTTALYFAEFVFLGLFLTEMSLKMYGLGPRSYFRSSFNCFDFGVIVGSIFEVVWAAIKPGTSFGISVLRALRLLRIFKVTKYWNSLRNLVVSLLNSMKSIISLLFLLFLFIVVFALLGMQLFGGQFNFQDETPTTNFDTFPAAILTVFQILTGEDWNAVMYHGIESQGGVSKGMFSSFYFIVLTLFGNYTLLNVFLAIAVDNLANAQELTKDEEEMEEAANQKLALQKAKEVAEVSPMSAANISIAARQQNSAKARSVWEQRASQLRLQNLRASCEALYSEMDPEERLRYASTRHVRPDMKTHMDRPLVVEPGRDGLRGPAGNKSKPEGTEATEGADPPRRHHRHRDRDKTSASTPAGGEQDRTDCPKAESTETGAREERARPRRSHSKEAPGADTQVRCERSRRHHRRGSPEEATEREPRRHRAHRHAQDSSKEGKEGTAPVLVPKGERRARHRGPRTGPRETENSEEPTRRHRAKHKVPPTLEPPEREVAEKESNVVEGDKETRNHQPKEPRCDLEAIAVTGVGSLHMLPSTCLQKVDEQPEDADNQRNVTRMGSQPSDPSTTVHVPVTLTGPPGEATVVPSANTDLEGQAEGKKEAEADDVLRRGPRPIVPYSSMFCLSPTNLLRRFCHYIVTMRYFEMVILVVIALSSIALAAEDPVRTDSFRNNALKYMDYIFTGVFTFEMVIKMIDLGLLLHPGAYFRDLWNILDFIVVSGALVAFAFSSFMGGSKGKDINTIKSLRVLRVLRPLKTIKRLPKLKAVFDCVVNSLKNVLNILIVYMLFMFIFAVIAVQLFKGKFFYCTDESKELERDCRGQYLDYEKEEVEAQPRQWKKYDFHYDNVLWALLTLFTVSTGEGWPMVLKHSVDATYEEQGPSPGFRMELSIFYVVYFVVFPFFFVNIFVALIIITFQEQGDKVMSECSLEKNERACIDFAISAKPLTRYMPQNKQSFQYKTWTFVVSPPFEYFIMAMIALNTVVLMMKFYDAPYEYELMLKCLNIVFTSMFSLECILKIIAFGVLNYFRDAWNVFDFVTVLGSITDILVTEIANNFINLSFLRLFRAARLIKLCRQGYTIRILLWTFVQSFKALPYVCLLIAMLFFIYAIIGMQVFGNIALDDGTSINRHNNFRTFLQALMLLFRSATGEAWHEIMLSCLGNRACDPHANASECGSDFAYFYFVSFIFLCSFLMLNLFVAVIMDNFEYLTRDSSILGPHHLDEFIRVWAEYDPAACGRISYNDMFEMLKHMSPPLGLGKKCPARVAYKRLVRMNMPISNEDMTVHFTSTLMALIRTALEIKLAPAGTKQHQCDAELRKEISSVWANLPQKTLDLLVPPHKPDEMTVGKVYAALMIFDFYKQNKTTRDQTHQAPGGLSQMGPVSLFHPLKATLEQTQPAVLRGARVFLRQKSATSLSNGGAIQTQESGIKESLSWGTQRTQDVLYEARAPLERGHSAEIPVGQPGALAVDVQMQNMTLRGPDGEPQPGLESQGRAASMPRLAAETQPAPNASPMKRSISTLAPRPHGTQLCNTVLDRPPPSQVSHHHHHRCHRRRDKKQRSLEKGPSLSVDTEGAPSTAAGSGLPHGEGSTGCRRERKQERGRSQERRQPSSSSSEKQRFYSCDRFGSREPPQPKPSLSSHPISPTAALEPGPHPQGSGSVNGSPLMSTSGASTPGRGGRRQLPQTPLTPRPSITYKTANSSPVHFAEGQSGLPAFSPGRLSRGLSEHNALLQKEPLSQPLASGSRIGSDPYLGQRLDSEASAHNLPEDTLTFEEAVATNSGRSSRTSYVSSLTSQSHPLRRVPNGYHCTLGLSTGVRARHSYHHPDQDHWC
Assay [8] deals with Sodium channel protein type 5 subunit alpha (Homo sapiens, UniProt Q14524). It counts as functional, cell-based.
Further: assay procedure not described here.

Sequence of Glucagon receptor (P47871 whole entry): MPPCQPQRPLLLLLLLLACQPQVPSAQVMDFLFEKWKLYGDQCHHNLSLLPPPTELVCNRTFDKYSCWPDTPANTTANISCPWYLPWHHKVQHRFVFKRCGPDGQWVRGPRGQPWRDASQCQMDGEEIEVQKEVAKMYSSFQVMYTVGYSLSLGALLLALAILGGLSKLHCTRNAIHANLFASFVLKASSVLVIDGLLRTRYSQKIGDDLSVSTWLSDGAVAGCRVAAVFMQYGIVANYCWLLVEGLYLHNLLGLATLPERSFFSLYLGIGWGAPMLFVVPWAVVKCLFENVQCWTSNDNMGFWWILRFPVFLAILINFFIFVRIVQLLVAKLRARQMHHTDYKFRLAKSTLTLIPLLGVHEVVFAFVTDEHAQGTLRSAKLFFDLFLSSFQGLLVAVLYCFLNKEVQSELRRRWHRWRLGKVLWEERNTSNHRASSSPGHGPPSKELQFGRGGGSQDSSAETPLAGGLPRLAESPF
Sequence of Neurotensin receptor type 1 (P30989 whole entry): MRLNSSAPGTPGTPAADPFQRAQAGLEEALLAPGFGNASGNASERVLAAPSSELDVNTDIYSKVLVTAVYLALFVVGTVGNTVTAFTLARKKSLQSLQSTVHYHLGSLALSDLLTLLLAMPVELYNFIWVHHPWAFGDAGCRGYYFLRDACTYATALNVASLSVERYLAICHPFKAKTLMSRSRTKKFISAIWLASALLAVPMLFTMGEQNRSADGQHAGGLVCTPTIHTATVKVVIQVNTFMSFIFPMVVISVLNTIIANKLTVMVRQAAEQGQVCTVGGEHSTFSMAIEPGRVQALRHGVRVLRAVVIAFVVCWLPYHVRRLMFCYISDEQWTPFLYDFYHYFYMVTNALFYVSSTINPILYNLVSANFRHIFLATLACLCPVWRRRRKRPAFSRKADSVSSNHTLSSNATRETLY

On to `CCCCOc1ccc(C(=O)CCN2CCCCC2)cc1` [DYCLONINE], for which the AC50 (in general, the midpoint of the concentration-response curve, whichever way the signal moves) is > 10 µM in [1]; > 30 µM in assay [2]; > 30 µM on Glucagon receptor; 4.11 µM at D(4) dopamine receptor; > 10 µM in assay [3]; > 10 µM on D(1A) dopamine receptor. Further, the AC50 on Substance-K receptor is > 10 µM; at Histamine H1 receptor, > 30 µM; in assay [4], > 30 µM; in assay [5] it was > 10 µM; in [6], > 10 µM; in assay [7], > 10 µM.
Consider `Cc1ccnc2c1NC(=O)c1cccnc1N2C1CC1` [NEVIRAPINE], for which the concentration at half-maximal activity (AC50) in assay [1] was > 10 µM; in [2], > 30 µM; on Glucagon receptor, > 30 µM; on D(4) dopamine receptor, > 10 µM; in assay [3], > 10 µM; on D(1A) dopamine receptor it was > 10 µM. The AC50 is > 10 µM at Substance-K receptor; > 30 µM in assay [4]; > 10 µM in assay [5]; > 10 µM in assay [6]; > 10 µM in assay [7].
Take `Fc1ccc([C@@H]2CCNC[C@H]2COc2ccc3c(c2)OCO3)cc1` [PAROXETINE]: the AC50 in assay [2] is > 30 µM; at Glucagon receptor, > 30 µM; on D(4) dopamine receptor, > 10 µM; on D(1A) dopamine receptor, > 10 µM; on Substance-K receptor, > 10 µM; in [4], > 30 µM. In addition, the AC50 in assay [5] was 11.9 µM; in assay [6] it was > 10 µM; in assay [8], 25.4 µM; in [7], > 10 µM.
